Test results as given in patent US10801068B2, “JAG1 expression predicts therapeutic response in NASH” (The Trustees of Columbia University in the City of New York, priority 2015, dated 2020).
Like-named read-outs stand apart in the source and are kept apart here.

Legend:
[1] = system: adult patients with biopsy-confirmed NASH; details: cited from earlier work
[2] = system: adult, non-diabetic patients with NASH; assay: PIVENS trial (Pioglitazone versus Vitamin E versus Placebo), ancillary analysis of responders, NAS, ALT, HOMA-IR; format: in vivo, human
Procedure: A pilot Ancillary Study to the Pioglitazone versus Vitamin E versus Placebo for the Treatment of nondiabetic Patients with Nonalcoholic Steatohepatitis (PIVENS) trial (Sanyal 2010), was conducted to ask whether hepatic Notch signaling tracks with disease pathology, and thus represent a novel biomarker of NAFLD/NASH.
PIVENS investigators randomized adult, non-diabetic patients with NASH to therapy with placebo, vitamin E (800 IU daily) or pioglitazone (30 mg daily), and had strict inclusion and exclusion criteria for trial entry, as well as a thorough clinical phenotyping of these patients (Sanyal 2011; Sanyal 2010). The PIVENS primary outcome was an improvement in NASH pathology, defined by improved hepatocellular ballooning without increase in fibrosis, and either a 2+ point decrease in NAS or to a score of ≤3 points.
Research-grade specimens were saved from subjects from the PIVENS trial for Ancillary Studies (Chalsani 2009). These samples were used to test the potential role of Notch signaling as either a biomarker or contributor to the NAFLD/NASH pathology.
(§1) A subset (Table 1, right), of PIVENS research subjects had paired baseline and 96 wk cDNA available for analysis.

[3] = system: adult, non-diabetic patients with NASH; details: final analysis; vitamin E 800 IU daily, pioglitazone 30 mg daily; cited from earlier work
HEYL = assay: PIVENS paired baseline and 96 wk liver cDNA, HEYL expression; format: in vivo, human; details: Vitamin E-treated responders, baseline vs 96 wk
Excerpt: as §1
(§2) Sample size calculations are based from PIVENS data as described in Example 9A, and exclude pioglitazone-treated patients to be conservative. Using data derived from paired samples in Vitamin E-treated responders (mean difference of 1.11±0.51 fg/ng 18S for HES1 and 2.27±0.71 fg/ng 18S for HEYL), we calculated using unpaired t-testing with type I error=0.05 and type II error=[…], that 12 before-and-after biopsies in FLINT are required to detect a statistically significant difference in OCA-responders for both HES1 and HEYL.

HES1 = assay: PIVENS paired baseline and 96 wk liver cDNA, HES1 expression; format: in vivo, human; details: Vitamin E-treated responders, baseline vs 96 wk
Excerpt: as §1, §2

[4] = Cross-sectional study, nonresponders (NR)
[5] = Cross-sectional study, responders (R)
[6] = Cross-sectional study, number of subjects with NASH resolution or primary PIVENS outcome
[7] = Longitudinal study, nonresponders (NR)
[8] = Longitudinal study, responders (R)
[9] = Longitudinal study, number of subjects

Compound | Responders (%) ([2]; Cross-sectional study) | ALT [2, 4] [U/L] | HOMA-IR [2, 4] | NAS [2, 4] | ALT [2, 5] | HOMA-IR [2, 5] | NAS [2, 5] | Responders [2, 6] | Responders (%) ([2]; Longitudinal study) | ALT [2, 7] [U/L] | HOMA-IR [2, 7] | NAS [2, 7] | ALT [2, 8] [U/L] | HOMA-IR [2, 8] | NAS [2, 8] | Responders [2, 9] | other results
CC[C@H]1[C@@H](O)[C@@H]2[C@H](CC[C@]3(C)[C@@H]([C@H](C)CCC(=O)O)CC[C@@H]23)[C@@]2(C)CC[C@@H](O)C[C@@H]12 [OCA, obeticholic acid] |  |  |  |  |  |  |  |  |  |  |  |  |  |  |  |  | HOMA-IR ([1]; change, p=0.01): +13 U; insulin ([1]; change, p=0.02): +29 pmol/L; HDL cholesterol ([1]; in vivo): significant lowering; insulin resistance ([1]; in vivo): increased insulin resistance; insulin resistance ([1]; in vivo, listed as obeticholic acid): clearly induced insulin resistance
CCc1ccc(CCOc2ccc(CC3SC(=O)NC3=O)cc2)nc1 (stereo not shown) [PIO, pioglitazone] | (78%) | 46 | 5.5 | 4.8 | 34 ± U/L | 2.9 ± | 2.2 ± | 29 | (75%) | 56 | 4.1 | 5.0 | 41 | 3.3 | 3.0 | 3 | 
vitamin E [VitE] | (61%) | 55 | 5.6 | 4.6 | 33 U/L | 5.2 | 2.7 ± | 25 | (60%) | 58 | 5.1 | 3.9 | 45 | 5.1 | 2.6 | 6 | PIVENS primary outcome (improvement in NASH pathology) [3]: met the primary outcome; mean difference of HEYL in paired samples (HEYL): 2.27±0.71 fg/ng 18S; mean difference of HES1 in paired samples (HES1): 1.11±0.51 fg/ng 18S
